Data: patent US9458165B2, “DOT1L inhibitors” (Dana-Farber Cancer Institute, Inc., priority 2014, dated 2016)
Read-outs that look alike come from different tables or passages of the source.

Columns and labels:
His6-DOT1L = His6-DOT1L (Homo sapiens, UniProt Q8TEK3); assay: ALPHA assay (AlphaScreen) of probe displacement from DOT1L; format: binding; conditions: FIG. 9
Description: In and ALPHA assay binding of binding partners captured on the beads leads to an energy transfer from one bead to the other, ultimately producing a luminescent signal. Alpha assays require two bead types: donor beads and acceptor beads. Donor beads contain a photosensitizer, phthalocyanine, which converts ambient oxygen to an excited and reactive form of O2, singlet oxygen, upon illumination at 680 nm. Within its 4 μsec half-life, singlet oxygen can diffuse approximately 200 nm in solution. If an Acceptor bead is within that distance, energy is transferred from the singlet oxygen to thioxene derivatives within the Acceptor bead, resulting in light production. If the Donor bead is not in proximity of an Acceptor bead, the singlet oxygen falls to ground state and no signal is produced. […]
Two stock solutions are made at 2× the final concentration in Alpha buffer. […] Finally, 10 μL of solution B is added to the 384 well alpha plate, the plate is spun down and incubated at room temperature and read on a plate reader.
Plates can be read with an Envision plate reader, which comes with a predefined AlphaScreen program that has the correct excitation and emission wavelengths, cutoff filters, delay time, etc. […]
Plates are incubated at room temperature for 20 minutes, then read on plate reader.

MV411 = assay: Cellular activity in DOT1L related leukemia cell line (FIG. 10A); format: cell-based; conditions: compared to EPZ4777, FIG. 10A
HL60 = assay: Cellular activity in HL60 cell line (FIG. 10B); format: cell-based; conditions: compared to EPZ4777, FIG. 10B
the related gene = assay: Gene expression assay; format: cell-based; conditions: compared to CC001 and EPZ4777, FIG. 6
MV4:11 cell line = assay: Anti-proliferation study; format: cell-based; conditions: compared to CC001, FIG. 7
[1] = Pharmacokinetic study, IP 100 mg/kg, whole blood concentration; format: in vivo, male CD1 mice; conditions: for AUC(0-inf) / AUC(0-t) / Cmax / half-life / Tmax / concentration at 0.083 hr / concentration at 0.25 hr / concentration at 0.5 hr / concentration at 1 h / concentration at 2 h / concentration at 4 h / concentration at 8 h / concentration at 24 h: male, CD1, mouse, ip, 100 mg/kg
Experimental: Pharmacokinetic studies in CD1 mice using the compound of Example 1 (i.e. CC-006) (100 mg/kg, IP dose) were also performed.

[2] = Cellular assays (not specified at the place); format: cell-based
Experimental: The compounds of Examples 1-4 and known DOT1L inhibitors were analyzed in a High Content Imaging Assay (HCI).

[3] = read-out: Concentration Mouse#1
[4] = read-out: Concentration Mouse#2
[5] = read-out: Concentration Mouse#3

His6-DOT1L, sequence (Q8TEK3 whole entry): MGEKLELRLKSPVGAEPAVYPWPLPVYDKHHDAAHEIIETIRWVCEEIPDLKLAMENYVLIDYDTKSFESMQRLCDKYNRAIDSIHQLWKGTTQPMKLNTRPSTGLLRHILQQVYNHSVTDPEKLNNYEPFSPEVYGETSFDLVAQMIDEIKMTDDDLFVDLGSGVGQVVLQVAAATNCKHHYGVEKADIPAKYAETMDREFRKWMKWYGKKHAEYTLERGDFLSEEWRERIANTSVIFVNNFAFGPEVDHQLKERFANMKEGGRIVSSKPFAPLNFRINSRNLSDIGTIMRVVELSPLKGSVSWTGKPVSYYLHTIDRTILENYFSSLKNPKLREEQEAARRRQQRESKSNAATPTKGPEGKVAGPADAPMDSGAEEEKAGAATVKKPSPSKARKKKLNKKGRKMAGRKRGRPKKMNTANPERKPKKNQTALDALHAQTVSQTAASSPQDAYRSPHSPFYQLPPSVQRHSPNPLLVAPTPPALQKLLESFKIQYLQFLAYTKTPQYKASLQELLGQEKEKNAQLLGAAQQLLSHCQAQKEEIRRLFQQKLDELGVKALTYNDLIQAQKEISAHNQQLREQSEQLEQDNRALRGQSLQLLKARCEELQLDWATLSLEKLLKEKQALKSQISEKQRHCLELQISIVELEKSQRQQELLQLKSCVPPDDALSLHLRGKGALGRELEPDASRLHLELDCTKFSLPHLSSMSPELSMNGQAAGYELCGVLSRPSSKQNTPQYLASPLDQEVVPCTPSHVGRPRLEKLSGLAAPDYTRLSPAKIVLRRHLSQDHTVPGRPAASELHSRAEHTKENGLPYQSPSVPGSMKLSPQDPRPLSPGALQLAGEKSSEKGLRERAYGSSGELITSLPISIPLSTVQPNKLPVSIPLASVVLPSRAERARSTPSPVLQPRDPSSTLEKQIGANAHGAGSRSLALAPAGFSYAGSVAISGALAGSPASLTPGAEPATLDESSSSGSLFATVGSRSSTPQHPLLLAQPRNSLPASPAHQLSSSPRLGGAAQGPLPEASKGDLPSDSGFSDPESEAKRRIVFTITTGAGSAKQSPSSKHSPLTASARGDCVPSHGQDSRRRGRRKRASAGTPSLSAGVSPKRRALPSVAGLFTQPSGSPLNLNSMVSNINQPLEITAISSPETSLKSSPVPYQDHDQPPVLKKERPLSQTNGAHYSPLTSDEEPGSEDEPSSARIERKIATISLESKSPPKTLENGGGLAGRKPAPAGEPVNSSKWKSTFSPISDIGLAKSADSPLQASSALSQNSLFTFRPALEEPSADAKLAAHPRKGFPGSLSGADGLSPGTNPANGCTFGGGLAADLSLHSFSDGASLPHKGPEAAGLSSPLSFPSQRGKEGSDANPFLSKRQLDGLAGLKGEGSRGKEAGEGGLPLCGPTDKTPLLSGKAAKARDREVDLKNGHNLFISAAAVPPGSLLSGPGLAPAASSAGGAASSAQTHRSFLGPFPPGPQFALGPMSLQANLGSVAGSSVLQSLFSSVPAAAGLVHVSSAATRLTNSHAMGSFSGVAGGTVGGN

Q: What does the source list for `CC(C)N(C[C@H]1C[C@@H](n2cc(C#N)c3c(N)ncnc32)[C@H](O)[C@@H]1O)C1CC(CCc2nc3ccc(C(C)(C)C)cc3[nH]2)C1` (stereo partly drawn) [Example 1, 4-amino-7-((1R,2S,3R,4R)-4-(((3-(2-(6-(tert-butyl)-1H-benzo[d]imidazol-2-yl)ethyl)cyclobutyl)(isopropyl)amino)methyl)-2,3-dihydroxycyclopentyl)-7H-pyrrolo[2,3-d]pyrimidine-5-carbonitrile]?
A: binding to DOT1L (ALPHA screen) (His6-DOT1L): binds to DOT1L; cellular activity on DOT1L related leukemia (MV411): more potent than EPZ4777; cellular activity on HL60 (HL60): but not on HL60; down regulation of the related gene (the related gene): down regulates the related gene more efficiently than known DOT1L inhibitor CC001 and very similar to EPZ4777; anti-proliferation activity (MV4:11 cell line): greater than known DOT1L inhibitor CC001; AUC(0-inf) ([1]; read-out: AUCINF Mean): 86900 ng·h/mL; AUC(0-inf) ([1]; read-out: AUCINF Mouse#1): 58900 ng·h/mL; AUC(0-inf) ([1]; read-out: AUCINF Mouse#2): 72900 ng·h/mL; AUC(0-inf) ([1]; read-out: AUCINF Mouse#3): 129000 ng·h/mL; AUC(0-t) ([1]; read-out: AUClast Mean): 84400 ng·h/mL; AUC(0-t) ([1]; read-out: AUClast Mouse#1): 57100 ng·h/mL; AUC(0-t) ([1]; read-out: AUClast Mouse#2): 70500 ng·h/mL; AUC(0-t) ([1]; read-out: AUClast Mouse#3): 126000 ng·h/mL; Cmax ([1]; read-out: Cmax Mean): 15300 ng/mL; Cmax ([1]; read-out: Cmax Mouse#1): 13100 ng/mL; Cmax ([1]; read-out: Cmax Mouse#2): 15000 ng/mL; Cmax ([1]; read-out: Cmax Mouse#3): 17800 ng/mL; half-life ([1]; read-out: Terminal t1/2 Mean (converted)): 4.65 h; half-life ([1]; read-out: Terminal t1/2 Mouse#1 (converted)): 4.64 h; half-life ([1]; read-out: Terminal t1/2 Mouse#2 (converted)): 4.8 h; half-life ([1]; read-out: Terminal t1/2 Mouse#3 (converted)): 4.51 h; Tmax ([1]; read-out: Tmax Mean): 0.833 h; Tmax ([1]; read-out: Tmax Mouse#1): 1 h; Tmax ([1]; read-out: Tmax Mouse#2): 1 h; Tmax ([1]; read-out: Tmax Mouse#3): 0.5 h; concentration at 0.083 hr ([1]; read-out: Concentration Mean): 5350 ng/mL; concentration at 0.083 hr [1, 3]: 4600 ng/mL; concentration at 0.083 hr [1, 4]: 5940 ng/mL; concentration at 0.083 hr [1, 5]: 5500 ng/mL; concentration at 0.25 hr ([1]; read-out: Concentration Mean): 12700 ng/mL; concentration at 0.25 hr [1, 3]: 12000 ng/mL; concentration at 0.25 hr [1, 4]: 13400 ng/mL; concentration at 0.25 hr [1, 5]: 12800 ng/mL; concentration at 0.5 hr ([1]; read-out: Concentration Mean): 14300 ng/mL; concentration at 0.5 hr [1, 3]: 11100 ng/mL; concentration at 0.5 hr [1, 4]: 14100 ng/mL; concentration at 0.5 hr [1, 5]: 17800 ng/mL; concentration at 1 h ([1]; read-out: Concentration Mean): 15200 ng/mL; concentration at 1 h [1, 3]: 13100 ng/mL; concentration at 1 h [1, 4]: 15000 ng/mL; concentration at 1 h [1, 5]: 17500 ng/mL; concentration at 2 h ([1]; read-out: Concentration Mean): 12600 ng/mL; concentration at 2 h [1, 3]: 10500 ng/mL; concentration at 2 h [1, 4]: 11300 ng/mL; concentration at 2 h [1, 5]: 16100 ng/mL; concentration at 4 h ([1]; read-out: Concentration Mean): 7450 ng/mL; concentration at 4 h [1, 3]: 4210 ng/mL; concentration at 4 h [1, 4]: 5380 ng/mL; concentration at 4 h [1, 5]: 12800 ng/mL; concentration at 8 h ([1]; read-out: Concentration Mean): 2000 ng/mL; concentration at 8 h [1, 3]: 957 ng/mL; concentration at 8 h [1, 4]: 1460 ng/mL; concentration at 8 h [1, 5]: 3570 ng/mL; concentration at 24 h ([1]; read-out: Concentration Mean): 382 ng/mL; concentration at 24 h [1, 3]: 266 ng/mL; concentration at 24 h [1, 4]: 350 ng/mL; concentration at 24 h [1, 5]: 531 ng/mL; Concentration Mean ([1]; sampling time 0 hr): BQL; Concentration Mouse#1 ([1]; sampling time 0 hr): BQL; Concentration Mouse#2 ([1]; sampling time 0 hr): BQL; Concentration Mouse#3 ([1]; sampling time 0 hr): BQL; cellular activity compared to CC0001 [2]: largely improved cellular activity compared to CC0001
